The subject of one test is cofilin. Description: WB analysis of cofilin expression in thrombin-challenged SHSY cells. It is filed as cell-based, human. As to conditions: thrombin 100 U/ml, SZ-3 5 μM after 3 h, WB after 24 h. On the procedure: The synthesized SZ-3 compound was tested for neuroprotective properties in cell-based models using a neuroblastoma cell line (SHSY) and thrombin as a stressor. Thrombin was used as a cell death inducer in cell-based models for hemorrhagic brain injury. SHSY cells were challenged by 100 U/ml thrombin and after 3 hrs treated with different concentrations of synthesized compounds. […] Cell death is observed through fluorescence.
Cells were harvested and washed with ice-cold lysis buffer (250 mM sucrose, 1.5 mM MgCl2, 10 mM KCl, 20 mM HEPES 7.6 pH, 1 mM of dithiothreitol, 1 mM phenylmethylsulfonyl fluoride, 50 mM NaF, 10 mM sodium orthovanadate, 20 mM sodium pyrophosphate, and protease inhibitors) for 15 min then supplemented with 5% of Nonidet P-40 for 2 min. Cytosolic fraction was collected from the supernatant after centrifugation at 14,000 g for 10 min. Bradford reagent (Bio-Rad Laboratories) was used to determine the protein concentrations, and equal amounts of samples were loaded onto 10-15% SDS-polyacrylamide gels, separated by electrophoresis, and transferred to PVDF membranes. […] Glyceraldehyde 3-phosphate dehydrogenase (GAPDH) or beta-actin were used as the loading control, and band intensity analyzed using Bio-Rad Chemi-Doc XRS Image Lab Software.

The next test has as its system NF-κB. In words: WB of NF-κB in thrombin-challenged HMC3 cells. It is filed as cell-based, human. As to conditions: thrombin 100 U/ml, SZ-3 10, 5 μM after 3 h, WB after 24 h. The method, then:
FIG. 11: SZ-3 reduces inflammation through NF-κB mechanism. Cultured HMC3 cells were challenged with thrombin 100 U/ml and after 3 h were treated with different concentrations of SZ-3 (10 and 5 μM). Cells were harvested for WB analysis after 24 h.
WB was used to assay the expression levels of cofilin, phosphocofilin, and NF-κB. […] Without wishing to be bound by theory, the role of phosphocofilin is not fully understood, but it is believed that it is decreased in stress conditions and its restoration is beneficial.
HMC3 cells were cultured in DMEM/F12 medium supplemented with 5% horse serum (HS), 10% fetal bovine serum (FBS), and 1% penicillin/streptomycin. Cells were stimulated with 100 U/ml thrombin from bovine plasma (Sigma) and treated without (vehicle) or with different concentrations of SZ-3.
Cells were harvested and washed with ice-cold lysis buffer (250 mM sucrose, 1.5 mM MgCl2, 10 mM KCl, 20 mM HEPES 7.6 pH, 1 mM of dithiothreitol, 1 mM phenylmethylsulfonyl fluoride, 50 mM NaF, 10 mM sodium orthovanadate, 20 mM sodium pyrophosphate, and protease inhibitors) for 15 min then supplemented with 5% of Nonidet P-40 for 2 min. […] Glyceraldehyde 3-phosphate dehydrogenase (GAPDH) or beta-actin were used as the loading control, and band intensity analyzed using Bio-Rad Chemi-Doc XRS Image Lab Software.

For the compound `CC(C)(C)c1ccc(O)c(CN(Cc2cc(C(C)(C)C)ccc2O)C2CCC(NC(N)=O)CC2)c1` (centres unmarked) [SZ-3, 4-{bis[(5-tert-butyl-2-hydroxyphenyl)methyl]amino}cyclohexyl urea], in the test with cofilin, the cofilin expression entry is “significantly reduced cofilin expression”. The NF-κB expression level entry in the test with NF-κB was “significantly reduced”.

(Values after patent publication US11548850B2, “Development of a cofilin inhibitor for the treatment of hemorrhagic brain injury-induced neuroinflammation” (The University of Toledo, priority 2019, dated 2023).)
